The text below walks through data of article PMC12017303 (Science Advances, 2025).

Structures are written as SMILES.

The test system of this experiment is α-HCoV 229E, β-HCoV OC43, MERS-CoV, SARS-CoV, SARS-CoV-2 variants (Delta, BA.2). It counts as cell-based. The conditions noted are these: read-out: EC50 against all tested variants.

By EC50 is commonly meant the concentration giving half of the maximal effect.

Turning to `C#CCn1c(C)c(-n2nnc3ccccc32)c(=O)n(-c2cncc3ccccc23)c1=O` [AVI-4516], the EC50 was below 3000 nM.
